Data taken from US10611731B2, “5-methyl-6-phenyl-4,5-dihydro-2H-pyridazin-3-one derivative” (OTSUKA PHARMACEUTICAL CO., LTD., priority 2016, dated 2020).
pIC50: −log10 of the molar value.

Tests used:
[1] = test system: human childhood brain tumor cell lines (PFSK-1); assay: Growth inhibitory activity against PFSK-1 cells (WST-8, Cell Counting Kit-8); format: cell-based; settings: Homo sapiens, 72 h, 3 days incubation with test compound, WST-8 OD 450/630 nm, read-out: IC50 (concentration inhibiting 50% of the cell growth)
In short: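 Cells seeded in RPMI 1640 with 10% FBS and preincubated 24 h at 37 °C, 5% CO2, then exposed to compound for 3 days. IC50 (nM) from growth relative to untreated control.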

SMILES | pIC50 [1] | melting point [°C]
CC1CC(=O)NN=C1c1ccc(OCCCCO)c(Cl)c1O (stereo not drawn) [Example 88, 6-[3-Chloro-2-hydroxy-4-(4-hydroxybutoxy)phenyl]-5-methyl-4,5-dihydro-2H-pyridazin-3-one] | 8.02 | 204.5 to 204.9
C=Cc1c(OCCCCO)ccc(C2=NNC(=O)CC2C)c1F (stereo not drawn) [Example 89, 6-[2-Fluoro-4-(4-hydroxybutoxy)-3-vinylphenyl]-5-methyl-4,5-dihydro-2H-pyridazin-3-one] | 8.31 | 106.4 to 107.4
Cc1c(OCCCCO)ccc(C2=NNC(=O)CC2C)c1O (stereo not drawn) [Example 87, 6-[2-Hydroxy-4-(4-hydroxybutoxy)-3-methylphenyl]-5-methyl-4,5-dihydro-2H-pyridazin-3-one] | 8.01 | 178.7 to 179.9
CCc1c(OCC(C)(C)O)ccc(C2=NNC(=O)CC2C)c1F (stereo not drawn) [Example 134, 6-[3-Ethyl-2-fluoro-4-(2-hydroxy-2-methylpropoxy)phenyl]-5-methyl-4,5-dihydro-2H-pyridazin-3-one] | 8.15 | 
C[C@@H]1CC(=O)NN=C1c1ccc(OCC(C)(C)O)c(Cl)c1O [Example 182, (5R)-(−)-6-[3-chloro-2-hydroxy-4-(2-hydroxy-2-methylpropoxy)phenyl]-5-methyl-4,5-dihydro-2H-pyridazin-3-one] | 8.54 | 
CC1CC(=O)NN=C1c1ccc(OC/C=C\CO)c(Cl)c1F (stereo not drawn) [Example 76, 6-{3-chloro-2-fluoro-4-[(Z)-4-hydroxy-2-butenyloxy]phenyl}-5-methyl-4,5-dihydro-2H-pyridazin-3-one] | 8.57 | 
Cc1cc(C2=NNC(=O)CC2C)cc(Cl)c1OCCCCO (stereo not drawn) [Example 79, 6-[3-Chloro-4-(4-hydroxybutoxy)-5-methylphenyl]-5-methyl-4,5-dihydro-2H-pyridazin-3-one] | 8.25 | 

Results, then the compound that gave them:

pIC50 [1] | melting point [°C] | SMILES
8.18 | 199.1 to 200.1 | Cc1c(OCCCO)ccc(C2=NNC(=O)CC2C)c1O (stereo not drawn) [Example 78, 6-[2-Hydroxy-4-(3-hydroxypropoxy)-3-methylphenyl]-5-methyl-4,5-dihydro-2H-pyridazin-3-one]
 | 157.4 to 157.6 | Cc1cc(C2=NNC(=O)CC2C)cc(Cl)c1OCCO (stereo not drawn) [Example 4, 6-[3-Chloro-4-(2-hydroxyethoxy)-5-methylphenyl]-5-methyl-4,5-dihydro-2H-pyridazin-3-one]
8.54 | 129.7 to 132.6 | Cc1cc(C2=NNC(=O)CC2C)cc(Cl)c1OCCCO (stereo not drawn) [Example 17, 6-[3-Chloro-4-(3-hydroxypropoxy)-5-methylphenyl]-5-methyl-4,5-dihydro-2H-pyridazin-3-one]
8.28 | 225 to 225.3 | CC1CC(=O)NN=C1c1ccc(OCCCO)c(Cl)c1O (stereo not drawn) [Example 77, 6-[3-Chloro-2-hydroxy-4-(3-hydroxypropoxy)phenyl]-5-methyl-4,5-dihydro-2H-pyridazin-3-one]
8.34 |  | Cc1cc(C2=NNC(=O)CC2C)cc(Cl)c1OC/C=C\CO (stereo not drawn) [Example 86, 6-{3-Chloro-4-[(Z)-4-hydroxy-2-butenyloxy]-5-methylphenyl}-5-methyl-4,5-dihydro-2H-pyridazin-3-one]
8.66 |  | Cc1cc(C2=NNC(=O)CC2C)cc(Cl)c1OC[C@H]1C[C@H]1CO (relative stereo) [Example 155, 6-(3-Chloro-4-{[(1 S*,2R*)-2-(hydroxymethyl)cyclopropyl]methoxy}-5-methylphenyl)-5-methyl-4,5-dihydro-2H-pyridazin-3-one]
8.40 | 153 to 156.6 | CC1CC(=O)NN=C1c1cc(Cl)c(OCCCO)c(Br)c1 (stereo not drawn) [Example 18, 6-[3-Bromo-5-chloro-4-(3-hydroxypropoxy)phenyl]-5-methyl-4,5-dihydro-2H-pyridazin-3-one]
